{"source": "ChEMBL document CHEMBL5352443", "about": "“S-acylthioalkyl ester (SATE)-based prodrugs of deoxyribose cyclic dinucleotides (dCDNs) as the STING agonist for antitumor immunotherapy” (Eur J Med Chem, 2022)", "key": {"[1]": {"test": "Stability of the compound in 20% fetal bovine serum assessed as drug degradation at 100 uM measured at 72 hrs by HPLC analysis", "assay_type": "ADME, cell-free, Bos taurus", "details": "cattle"}, "[2]": {"tested_on": "CT26", "test": "Antitumor activity against mouse CT26 cells expressing high luciferase implanted in BALB/c mouse assessed as darkening of tumor tissue at 0.5 mg/kg, IT administered intratumorally on day 1,3,5,7 and measured on day 1,9,14,24 by fluorescence imaging analysis", "assay_type": "functional, organism-based", "details": "route it(Intratumoral), time 24.0 day"}, "[3]": {"test": "Toxicity in BALB/c mouse implanted with mouse CT26 cells expressing high luciferase assessed as mouse survival rate at 0.5 mg/kg, IT administered intratumorally on day 1,3,5,7 and measured at 50 days", "assay_type": "organism-based", "details": "in vivo, route it(Intratumoral), time 50 day"}, "[4]": {"biological_target": "T1, Stimulator of interferon genes protein (Homo sapiens, UniProt Q86WV6)", "T1 sequence (Q86WV6 whole entry)": "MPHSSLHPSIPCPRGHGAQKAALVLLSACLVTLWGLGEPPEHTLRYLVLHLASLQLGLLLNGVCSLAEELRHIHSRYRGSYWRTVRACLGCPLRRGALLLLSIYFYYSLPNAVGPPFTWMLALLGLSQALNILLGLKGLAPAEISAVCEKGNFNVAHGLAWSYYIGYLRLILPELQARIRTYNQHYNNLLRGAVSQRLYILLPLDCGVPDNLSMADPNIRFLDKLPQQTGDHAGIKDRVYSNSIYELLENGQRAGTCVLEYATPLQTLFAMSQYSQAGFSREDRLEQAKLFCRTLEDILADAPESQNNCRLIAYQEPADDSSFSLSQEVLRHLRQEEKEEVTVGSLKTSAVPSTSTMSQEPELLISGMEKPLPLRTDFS", "test": "Agonist activity at STING in PMA-treated human THP-1 reporter cells incubated for 30 mins in presence of digitonin by QUANTI-Luc assay", "assay_type": "cell-based"}, "[5]": {"biological_target": "T1, Stimulator of interferon genes protein", "test": "Agonist activity at STING in human THP-1 reporter cells incubated for 4 hrs in presence of lipofectamine 2000 by QUANTI-Luc assay", "assay_type": "cell-based"}, "[6]": {"biological_target": "T1, Stimulator of interferon genes protein", "test": "Agonist activity at STING in human THP-1 reporter cells incubated for 24 hrs by QUANTI-Luc assay", "assay_type": "cell-based"}}, "note": "Activity calls are given as the source filed them. The rule behind the calls is not given here.", "data": [{"compound": "Nc1nc2c(ncn2[C@@H]2O[C@@H]3COP(=O)(O)O[C@H]4[C@@H](O)[C@H](n5cnc6c(N)ncnc65)O[C@@H]4COP(=O)(O)O[C@@H]2[C@@H]3O)c(=O)[nH]1", "values": [{"measurement": "metabolised at 72 h, 100 µM", "setting": "[1]; 20% fetal bovine serum, read-out: Drug degradation", "result": 80, "unit": "%"}]}, {"compound": "Nc1ncnc2c1ncn2[C@@H]1O[C@@H]2COP(=O)(S)O[C@@H]3[C@H](O)[C@@H](COP(=O)(S)O[C@H]2[C@H]1O)O[C@H]3n1cnc2c(N)ncnc21", "note": "(some centres not stated)", "values": [{"measurement": "Activity", "setting": "[2]", "result": "Active"}, {"measurement": "survival at 1200 h", "setting": "[3]", "result": 75, "unit": "%"}]}, {"compound": "Nc1ncnc2c1ncn2[C@H]1C[C@@H]2OP(=O)(O)OC[C@H]3O[C@@H](n4cnc5c(N)ncnc54)C[C@@H]3OP(=O)(O)OC[C@H]2O1", "values": [{"measurement": "Stability", "setting": "[1]; serum, 72 h, 100 µM", "result": "Stable"}, {"measurement": "EC50", "setting": "[4]", "result": 317, "unit": "nM"}, {"measurement": "EC50", "setting": "[5]", "result": 673, "unit": "nM"}, {"measurement": "EC50", "setting": "[6]", "result": 41300, "unit": "nM"}]}]}
